A short description of this assay: Rotating Cage Autoclave Test (RCA), sour. The conditions noted are these: 150 ppm, 200 ppm H2S, 15% CO2, balance N2, 65° C., 70 bar, 72 hours, 1700 rpm. The procedure: In order to evaluate the corrosion inhibition efficacy of the polyesters according to the invention, 4 different test methods were employed: Linear Polarizing Resistance (LPR), Rotating Cylinder Electrode Test (RCE), Shell wheel test and High Pressure/High Temperature Rotating Cage Autoclave Test (RCA). For all testing 3.5% NaCl brine was used. For the application tests the materials to be tested (inventive as well as comparative) were diluted with butyl glycol to an active content of 25 wt.-% prior to testing. The dosage rates given in the tables refer to these 25 wt.-% active formulations.
Autoclaves equipped with rotating cages (RCA) were used to simulate high shear conditions for the purpose of evaluating system corrosivity and inhibitor performance. The testing solution consisted of 720 mL 3.5% NaCl brine and 80 mL LVT-200 oil. The synthetic brine had three cycles of vacuum/CO2 charge to the vessel prior to initiating the test to remove dissolved oxygen and to achieve an anaerobic system. Two weight loss corrosion coupons fixed on the rotating cage were used in each autoclave. General corrosion rates were calculated by weight loss measurement. A blank was run for comparison. Test conditions have been summarized below in Table 5.

For “N-tallow alkyl hexahydropyrimidinium ethoxylate methosulfate [sample 6]”, the “Average corrosion rate [mpy]” value was determined as 8.99 mpy and the Percent protection worked out at 92.8%.
